Data from paper PMC11316643 (European journal of medicinal chemistry, 2024).
Read-outs that look alike come from different tables or passages of the source. Values belong to the molecule of their own block, whether it stands above or below them.

Tests used:
[1] = molecular target: human kappa opioid receptor (KOR) (Homo sapiens, UniProt P41145); assay: 35S-GTPγS binding assay of KOR G protein activation in CHO-hKOR membranes; type: biochemical
human KOR = human KOR (Homo sapiens, UniProt P41145); assay: Bias analysis by operational model
human KOR, sequence (P41145 whole entry): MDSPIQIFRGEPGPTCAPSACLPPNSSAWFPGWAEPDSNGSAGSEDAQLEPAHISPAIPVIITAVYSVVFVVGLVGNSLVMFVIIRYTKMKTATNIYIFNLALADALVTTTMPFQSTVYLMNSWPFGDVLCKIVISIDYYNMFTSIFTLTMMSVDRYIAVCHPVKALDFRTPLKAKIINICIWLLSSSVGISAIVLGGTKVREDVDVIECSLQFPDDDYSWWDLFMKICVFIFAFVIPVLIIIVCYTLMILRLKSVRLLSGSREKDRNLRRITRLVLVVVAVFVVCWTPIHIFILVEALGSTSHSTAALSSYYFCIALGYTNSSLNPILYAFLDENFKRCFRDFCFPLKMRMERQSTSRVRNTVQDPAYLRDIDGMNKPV
human KOR, sequence (P32121 whole entry partner): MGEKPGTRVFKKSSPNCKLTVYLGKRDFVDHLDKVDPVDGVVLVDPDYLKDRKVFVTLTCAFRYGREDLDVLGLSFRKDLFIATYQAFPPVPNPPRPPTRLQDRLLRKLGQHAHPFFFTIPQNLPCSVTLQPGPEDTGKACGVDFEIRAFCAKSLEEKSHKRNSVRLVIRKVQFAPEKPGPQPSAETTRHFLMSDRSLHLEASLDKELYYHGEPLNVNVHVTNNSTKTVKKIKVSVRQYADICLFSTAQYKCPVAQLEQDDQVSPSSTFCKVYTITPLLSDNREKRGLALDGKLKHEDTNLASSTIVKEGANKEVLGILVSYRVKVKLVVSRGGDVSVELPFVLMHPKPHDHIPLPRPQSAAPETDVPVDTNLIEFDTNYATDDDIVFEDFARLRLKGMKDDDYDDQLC

human kappa opioid receptor (KOR), sequence (P41145 whole entry): as the sequence (P41145 whole entry) above

Compound: Brc1ccccc1CCc1nnc(-c2ccccn2)n1Cc1cccs1 [4g, 2-(5-(2-Bromophenethyl)-4-(thiophen-2-ylmethyl)-4H-1,2,4-triazol-3-yl)pyridine]
- fold decrease in potency of ortho bromo vs para-bromo (4e) [1]: ca. 10 fold

Compound: Cc1ccc(CCc2nnc(-c3cccnc3)n2Cc2cccs2)cc1C(F)(F)F [3b, 3-(5-(4-Methyl-3-(trifluoromethyl)phenethyl)-4-(thiophen-2-ylmethyl)-4H-1,2,4-triazol-3-yl)pyridine]
- KOR agonist activity (GTPγS) in words [1]: significant loss of activity

- KOR agonist activity (GTPγS) in words ([1]; SAR discussion): inactive
Compound: Cc1ccc(CCc2nnc(-c3ccccn3)n2Cc2ccncc2)cc1C(F)(F)F [2j, 2-(5-(4-Methyl-3-(trifluoromethyl)phenethyl)-4-(pyridin-4-ylmethyl)-4H-1,2,4-triazol-3-yl)pyridine]

Compound: Cc1ccc(CCc2nnc(-c3ccccn3)n2Cc2cccs2)cc1C(F)(F)F [2d, 2-(5-(4-Methyl-3-(trifluoromethyl)phenethyl)-4-(thiophen-2-ylmethyl)-4H-1,2,4-triazol-3-yl)pyridine]
- bias (bias factor, G protein over βarrestin2) (human KOR): 38

Compound: C(=C/c1nnc(-c2ccccn2)n1Cc1ccco1)/c1ccccc1 [5c, (Z)-2-(4-(Furan-2-ylmethyl)-5-styryl-4H-1,2,4-triazol-3-yl)pyridine]
- KOR agonist activity (GTPγS) in words [1]: dramatic loss in potency

Compound: Cc1ccc(CCc2nnc(-c3ccccn3)n2-c2ccccc2)cc1C(F)(F)F [2g, 2-(5-(4-Methyl-3-(trifluoromethyl)phenethyl)-4-phenyl-4H-1,2,4-triazol-3-yl)pyridine]
- KOR agonist activity (GTPγS) in words [1]: inactive

Compound: Cc1ccc(CCc2nnc(-c3ccccc3)n2Cc2cccs2)cc1C(F)(F)F [3a, 3-(4-Methyl-3-(trifluoromethyl)phenethyl)-5-phenyl-4-(thiophen-2-ylmethyl)-4H-1,2,4-triazole]
- KOR agonist activity (GTPγS) in words [1]: significant loss of activity

Compound: c1ccc(-c2nnc(-c3ccccn3)n2Cc2cccs2)cc1 [5j, 2-(5-Phenyl-4-(thiophen-2-ylmethyl)-4H-1,2,4-triazol-3-yl)pyridine]
- KOR agonist activity (GTPγS) in words [1]: loss of activity

- KOR agonist activity (GTPγS) in words ([1]; SAR discussion): significant loss of activity
Compound: Cc1ccc(CCc2nnc(-c3ccncc3)n2Cc2cccs2)cc1C(F)(F)F [3c, 4-(5-(4-Methyl-3-(trifluoromethyl)phenethyl)-4-(thiophen-2-ylmethyl)-4H-1,2,4-triazol-3-yl)pyridine]

Compound: FC(Cc1ccccc1)c1nnc(-c2ccccn2)n1Cc1ccco1 (centres unmarked) [5g, 2-(5-(1-Fluoro-2-phenylethyl)-4-(furan-2-ylmethyl)-4H-1,2,4-triazol-3-yl)pyridine]
- fold loss of potency compared to compound 4a [1]: 3 fold

Compound: Cc1ccc(CCc2nnc(-c3ccccn3)n2CC2CC2)cc1C(F)(F)F [2k, 2-(4-(Cyclopropylmethyl)-5-(4-methyl-3-(trifluoromethyl)phenethyl)-4H-1,2,4-triazol-3-yl)pyridine]
- fold decrease in potency on cyclopropane substitution [1]: 10 fold

- KOR agonist activity (GTPγS) in words ([1]; SAR discussion): detrimental to activity
Compound: c1ccc(-c2nnc(C3CCc4ccccc4C3)n2Cc2cccs2)nc1 (centres unmarked) [5a, 2-(5-(1,2,3,4-Tetrahydronaphthalen-2-yl)-4-(thiophen-2-ylmethyl)-4H-1,2,4-triazol-3-yl)pyridine]

Compound: Cc1ccc(/C=C/c2nnc(-c3ccccn3)n2Cc2ccco2)cc1C(F)(F)F [5d, (E)-2-(4-(Furan-2-ylmethyl)-5-(4-methyl-3-(trifluoromethyl)styryl)-4H-1,2,4-triazol-3-yl)pyridine]
- KOR agonist activity (GTPγS) in words [1]: dramatic loss in potency

- KOR agonist activity (GTPγS) in words ([1]; SAR discussion): dramatic loss in potency
Compound: C(#Cc1nnc(-c2ccccn2)n1Cc1ccco1)c1ccccc1 [5b, 2-(4-(Furan-2-ylmethyl)-5-(phenylethynyl)-4H-1,2,4-triazol-3-yl)pyridine]
